Publication PMC10178091, “The GRPR Antagonist [^99mTc]Tc-maSSS-PEG2-RM26 towards Phase I Clinical Trial: Kit Preparation, Characterization and Toxicity” (Diagnostics, 2023)
Read-outs that look alike come from different tables or passages of the source. Where a SMILES comes first, the peptide text is derived from it. [ ]: non-standard residue; d: D form. The star is where a group is joined. Sta = CC(C)C[C@H](N)[C@@H](O)CC(=O)O; Mercaptoacetyl = O=C(CS)*; AEEA = NCCOCCOCC(=O)O

How the values were obtained:
[1] = set-up: method as in PMID 36980517; conditions: phase I clinical study; cited from earlier work
[2] = target: T1, GRPR on PC-3 cells (Homo sapiens, UniProt P30550); experiment: In vitro binding specificity assay on PC-3 cells, with and without pre-blocking; conditions: 1 nM
T1 construct: endogenous in cells; host or cells: PC-3 cells
T1 sequence (P30550 whole entry): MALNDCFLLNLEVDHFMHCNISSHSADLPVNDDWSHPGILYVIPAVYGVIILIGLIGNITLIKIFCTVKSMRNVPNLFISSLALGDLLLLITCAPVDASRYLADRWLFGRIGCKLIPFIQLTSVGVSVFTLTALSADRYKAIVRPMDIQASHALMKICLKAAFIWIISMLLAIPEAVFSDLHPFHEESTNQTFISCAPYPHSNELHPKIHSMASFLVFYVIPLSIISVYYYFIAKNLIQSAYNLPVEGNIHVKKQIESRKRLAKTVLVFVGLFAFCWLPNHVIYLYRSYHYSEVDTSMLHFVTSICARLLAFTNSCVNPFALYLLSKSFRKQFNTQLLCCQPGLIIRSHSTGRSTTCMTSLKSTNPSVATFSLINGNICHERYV
Method: The radiolabeled peptide binding to GRPR was tested in PC-3 cells (GRPR +) by the addition of 1 nM of [^99mTc]Tc-maSSS-PEG2-RM26 to the cells (~10^6 cells, in triplicates), with and without pre-blocking of receptors, by the addition of 1 µM of NOTA-PEG2-RM26 (10 min at room temperature). After incubation at 37 °C for 1 h, the cells were treated with trypsin-EDTA, collected, and measured for their radioactivity content.
(§1) Randomly selected vials were stored at 4 °C at our laboratory for long-term testing. Within 18 months of storage, the vials were radiolabeled under the same conditions mentioned earlier. Additionally, the GRPR-binding in vitro was tested on a different batch of PC-3 cells, following the same protocol mentioned earlier. The in vivo GRPR-targeting properties of [^99mTc]Tc-maSSS-PEG2-RM26 were tested on PC-3 tumor-bearing Balb/c nu/nu mice (the cells (6 × 10^6 cells/mouse) were inoculated into the mice 4 weeks prior to the experiment). On the day of the experiment, when palpable tumors developed, a group of mice (n = 4) was injected with [^99mTc]Tc-maSSS-PEG2-RM26 (30 kBq/40 pmol) and another group (n = 4) was additionally co-injected with NOTA-PEG2-RM26 (5 nmol) to block GRPR. The mice were euthanized 1 h post-injection and the organs of interest were collected, weighed, and measured for their radioactivity content.

[3] = target: GRPR; set-up: method as in PMID 33573232; conditions: cited from earlier work
[4] = tested on: GRPR; experiment: Ex vivo biodistribution / in vivo GRPR targeting in PC-3 tumor-bearing mice; set-up: species or system Balb/c nu/nu mice; conditions: 1 h pi, kit stored 18 months, p < 0.001, n = 4
Method: as §1

[5] = as above; set-up: species or system Balb/c nu/nu mice; conditions: mouse, total radioactivity, 1 h pi, n = 4; for tissue to tissue ratio at 1 h: 40 pmol, ± SD
Method: as §1

[6] = target: T2, GRPR (Homo sapiens, UniProt P30550); experiment: as above; set-up: species or system Balb/c nu/nu mice; conditions: 1 h pi, kit stored 18 months, p < 0.001, n = 4
T2 construct: endogenous in cells; host or cells: PC-3 xenograft tumours in Balb/c nu/nu mice
T2 sequence (P30550 whole entry): as above
Method: as §1

## CC(C)C[C@H](NC(=O)C[C@H](O)[C@H](CC(C)C)NC(=O)[C@H](Cc1c[nH]cn1)NC(=O)CNC(=O)[C@@H](NC(=O)[C@H](C)NC(=O)[C@H](Cc1c[nH]c2ccccc12)NC(=O)[C@H](CCC(N)=O)NC(=O)[C@@H](Cc1ccccc1)NC(=O)COCCOCCNC(=O)[C@H](CO)NC(=O)[C@H](CO)NC(=O)[C@H](CO)NC(=O)CS)C(C)C)C(N)=O [[^99mTc]Tc-maSSS-PEG2-RM26, metal not drawn] (Mercaptoacetyl-SSS[AEEA][dF]QWAVGH[Sta]L-NH2)
[1]
  Absorbed doses in healthy organs and tissues: low absorbed doses
  Tolerability of single injections: well tolerated
[2]; freshly prepared kit, 1 h at 37 °C, pre-blocking with 1 µM NOTA-PEG2-RM26, p < 0.0001, n = 3
  Cell-associated radioactivity, non-blocked versus pre-blocked receptors: significant difference
[2]; kit stored for 18 months, purified with Sep-Pak, pre-blocking with 1 µM NOTA-PEG2-RM26
  Binding to non-blocked GRPR versus pre-blocked GRPR on PC-3 cells: significantly higher
[3]
  Equilibrium dissociation constant: low nanomolar range
[4]
  Difference in pancreatic uptake between non-blocked and blocked groups: 4 fold
[5]; Balb/c nu/nu, blood, PC-3 xenografts, 40 pmol / 30 kBq co-injected with 5 nmol NOTA-PEG2-RM26, average ± SD, read-out: Uptake in blood, blocked
  tissue uptake at 1 h: 0.3 ± 0.4 %ID/g
[5]; Balb/c nu/nu, bone, PC-3 xenografts, 40 pmol / 30 kBq co-injected with 5 nmol NOTA-PEG2-RM26, average ± SD, read-out: Uptake in bone, blocked
  tissue uptake at 1 h: 0.042 ± 0.009 %ID/g
[5]; Balb/c nu/nu, kidneys, PC-3 xenografts, 40 pmol / 30 kBq co-injected with 5 nmol NOTA-PEG2-RM26, average ± SD, read-out: Uptake in kidneys, blocked
  tissue uptake at 1 h: 5 ± 0.6 %ID/g
[5]; Balb/c nu/nu, liver, PC-3 xenografts, 40 pmol / 30 kBq co-injected with 5 nmol NOTA-PEG2-RM26, average ± SD, read-out: Uptake in liver, blocked
  tissue uptake at 1 h: 1.7 ± 0.4 %ID/g
[5]; Balb/c nu/nu, muscle, PC-3 xenografts, 40 pmol / 30 kBq co-injected with 5 nmol NOTA-PEG2-RM26, average ± SD, read-out: Uptake in muscle, blocked
  tissue uptake at 1 h: 0.032 ± 0.008 %ID/g
[5]; Balb/c nu/nu, pancreas, PC-3 xenografts, 40 pmol / 30 kBq co-injected with 5 nmol NOTA-PEG2-RM26, average ± SD, read-out: Uptake in pancreas, blocked
  tissue uptake at 1 h: 1.4 ± 0.1 %ID/g
[5]; Balb/c nu/nu, spleen, PC-3 xenografts, 40 pmol / 30 kBq co-injected with 5 nmol NOTA-PEG2-RM26, average ± SD, read-out: Uptake in spleen, blocked
  tissue uptake at 1 h: 0.13 ± 0.06 %ID/g
[5]; Balb/c nu/nu, tumor and blood, PC-3 xenografts, read-out: Tumor-to-blood ratio, non-blocked group
  tissue to tissue ratio at 1 h: 30 ± 4
[5]; Balb/c nu/nu, tumor and bone, PC-3 xenografts, read-out: Tumor-to-bone ratio, non-blocked group
  tissue to tissue ratio at 1 h: 78 ± 42
[5]; Balb/c nu/nu, tumor and kidneys, PC-3 xenografts, read-out: Tumor-to-kidneys ratio, non-blocked group
  tissue to tissue ratio at 1 h: 1.3 ± 0.2
[5]; Balb/c nu/nu, tumor and liver, PC-3 xenografts, read-out: Tumor-to-liver ratio, non-blocked group
  tissue to tissue ratio at 1 h: 2 ± 0.4
[5]; Balb/c nu/nu, tumor and muscle, PC-3 xenografts, read-out: Tumor-to-muscle ratio, non-blocked group
  tissue to tissue ratio at 1 h: 125 ± 50
[5]; Balb/c nu/nu, tumor and pancreas, PC-3 xenografts, read-out: Tumor-to-pancreas ratio, non-blocked group
  tissue to tissue ratio at 1 h: 1.1 ± 0.2
[5]; Balb/c nu/nu, tumor and spleen, PC-3 xenografts, read-out: Tumor-to-spleen ratio, non-blocked group
  tissue to tissue ratio at 1 h: 51 ± 18
[5]; Balb/c nu/nu, tumor, PC-3 xenografts, 40 pmol / 30 kBq co-injected with 5 nmol NOTA-PEG2-RM26, average ± SD, read-out: Uptake in tumor, blocked
  tissue uptake at 1 h: 0.89 ± 0.07 %ID/g
[5]; blood, Balb/c nu/nu mice with PC-3 xenografts, 40 pmol / 30 kBq, kit stored 18 months, average ± SD, read-out: Uptake in blood, non-blocked
  tissue uptake at 1 h: 0.3 ± 0.2 %ID/g
[5]; bone, Balb/c nu/nu mice with PC-3 xenografts, 40 pmol / 30 kBq, kit stored 18 months, average ± SD, read-out: Uptake in bone, non-blocked
  tissue uptake at 1 h: 0.09 ± 0.05 %ID/g
[5]; kidneys, Balb/c nu/nu mice with PC-3 xenografts, 40 pmol / 30 kBq, kit stored 18 months, average ± SD, read-out: Uptake in kidneys, non-blocked
  tissue uptake at 1 h: 5 ± 0.4 %ID/g
[5]; liver, Balb/c nu/nu mice with PC-3 xenografts, 40 pmol / 30 kBq, kit stored 18 months, average ± SD, read-out: Uptake in liver, non-blocked
  tissue uptake at 1 h: 2.9 ± 0.8 %ID/g
[5]; muscle, Balb/c nu/nu mice with PC-3 xenografts, 40 pmol / 30 kBq, kit stored 18 months, average ± SD, read-out: Uptake in muscle, non-blocked
  tissue uptake at 1 h: 0.05 ± 0.02 %ID/g
[5]; pancreas, Balb/c nu/nu mice with PC-3 xenografts, 40 pmol / 30 kBq, kit stored 18 months, average ± SD, read-out: Uptake in pancreas, non-blocked
  tissue uptake at 1 h: 6 ± 1 %ID/g
[5]; spleen, Balb/c nu/nu mice with PC-3 xenografts, 40 pmol / 30 kBq, kit stored 18 months, average ± SD, read-out: Uptake in spleen, non-blocked
  tissue uptake at 1 h: 0.13 ± 0.05 %ID/g
[5]; tumor, Balb/c nu/nu mice with PC-3 xenografts, 40 pmol / 30 kBq, kit stored 18 months, average ± SD, read-out: Uptake in tumor, non-blocked
  tissue uptake at 1 h: 6 ± 1 %ID/g
[6]
  Difference in PC-3 tumor uptake between non-blocked and blocked groups: 6 fold
